Molecular target: human PD-L1 / Human PD-1 (Homo sapiens (Human), UniProt Q9NZQ7)
Assay: Enzyme-Linked Immunosorbent Assay (ELISA), PD-1/PD-L1 binding
Conditions: Table 2; plate-coated human PD-L1, biotinylated human PD-1; read-out: ELISA IC50
Procedure: Plates were coated with 1 μg/mL of human PD-L1 (obtained from R&D) in PBS overnight at 4° C. The wells were then blocked with PBS containing 2% BSA in PBS (W/V) with 0.05% TWEEN-20 for 1 hour at 37° C. The plates were washed 3 times with PBS/0.05% TWEEN-20 and the samples were diluted to 1:5 in dilution medium in the ELISA plates. Human PD-1 and biotin 0.3 μg/mL (ACRO Biosystems) were added and incubated for 1 hour at 37° C. then washed 3 times with PBS/0.05% TWEEN-20. A second block was added with PBS containing 2% BSA in PBS (W/V)/0.05% TWEEN-20 for 10 min at 37° C. and was washed 3 times with PBS/0.05% TWEEN-20. Streptavidin-HRP was added for 1 hour at 37° C. then washed 3 times with PBS/0.05% TWEEN-20. TMB substrate was added and reacted for 20 min at 37° C. A stop solution (2 N aqueous H2SO4) was added. The absorbance was read at 450 nm using a micro-plate spectrophotometer.
Compounds in Table 2 and Table 3 were prepared by methods as described in the Examples, and evaluated according to the assay below.

human PD-L1 / Human PD-1, sequence (Q9NZQ7 19-239): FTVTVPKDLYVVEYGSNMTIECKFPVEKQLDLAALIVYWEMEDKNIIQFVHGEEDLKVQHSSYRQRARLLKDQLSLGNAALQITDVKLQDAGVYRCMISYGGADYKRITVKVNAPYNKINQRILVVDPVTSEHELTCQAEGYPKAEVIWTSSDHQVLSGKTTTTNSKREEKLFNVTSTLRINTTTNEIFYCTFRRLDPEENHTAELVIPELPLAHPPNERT

SMILES	IC50 [µM]
Cc1cccc(-c2cccc3c2CC[C@@H]3Oc2cc(OCc3cncc(C#N)c3)c(CN[C@@H](CO)C(=O)O)cc2Cl)c1 [Example 2.012]	0.5 to 20
COc1ccc(-c2cccc3c2CC[C@@H]3Oc2cc(OCc3cncc(C#N)c3)c(CN[C@@H](CO)C(=O)O)cc2Cl)cc1 [Example 2.014]	0.1 to 0.5
COc1cccc(-c2cccc3c2CC[C@@H]3Oc2cc(OCc3cncc(C#N)c3)c(CN[C@@H](CO)C(=O)O)cc2Cl)c1 [Example 2.015]	< 0.1
N#Cc1cncc(COc2cc(O[C@H]3CCc4c(-c5ccc(Cl)c(Cl)c5)cccc43)c(Cl)cc2CN[C@@H](CO)C(=O)O)c1 [Example 2.016]	0.5 to 20
N#Cc1cncc(COc2cc(O[C@H]3CCc4c(-c5ccccc5F)cccc43)c(Cl)cc2CNC23CC(C2)C3)c1 [Example 2.017]	0.5 to 20
N#Cc1cncc(COc2cc(O[C@H]3CCc4c(-c5ccccc5F)cccc43)c(Cl)cc2CN2CC(O)(C(=O)O)C2)c1 [Example 2.018]	0.1 to 0.5
N#Cc1cncc(COc2cc(O[C@H]3CCc4c(-c5ccccc5F)cccc43)c(Cl)cc2CN2CC[C@@H](O)C2)c1 [Example 2.019]	< 0.1
N#Cc1cncc(COc2cc(O[C@H]3CCc4c(-c5ccccc5F)cccc43)c(Cl)cc2CN2CC[C@H](O)C2)c1 [Example 2.020]	0.1 to 0.5
COc1ccc(-c2cccc3c2CC[C@@H]3Oc2cc(OCc3cncc(C#N)c3)c(CN[C@@H](CO)C(=O)O)cc2Cl)cc1OC [Example 2.021]	0.5 to 20
N#Cc1cncc(COc2cc(O[C@H]3CCc4c(-c5ccccc5F)cccc43)c(Cl)cc2CN2CCC(O)(C(=O)O)C2)c1 (stereo partly drawn) [Example 2.022]	< 0.1
COc1ccc(-c2cccc3c2CC[C@@H]3Oc2cc(OCc3cncc(C#N)c3)c(CN[C@@H](CO)C(=O)O)cc2Cl)cc1C [Example 2.023]	0.1 to 0.5
N#Cc1cncc(COc2cc(O[C@H]3CCc4c(-c5ccc6c(c5)OCCO6)cccc43)c(Cl)cc2CN[C@@H](CO)C(=O)O)c1 [Example 2.024]	< 0.1
N#Cc1cncc(COc2cc(O[C@H]3CCc4c(-c5ccccc5F)cccc43)c(Cl)cc2CNCc2cnn[nH]2)c1 [Example 2.025]	0.1 to 0.5
Cc1cc(-c2cccc3c2CC[C@@H]3Oc2cc(OCc3cncc(C#N)c3)c(CN[C@@H](CO)C(=O)O)cc2Cl)ccc1N(C)C [Example 2.026]	0.5 to 20
CN(C)c1cccc(-c2cccc3c2CC[C@@H]3Oc2cc(OCc3cncc(C#N)c3)c(CN[C@@H](CO)C(=O)O)cc2Cl)c1 [Example 2.027]	0.5 to 20
COc1cccc(-c2cccc3c2CC[C@@H]3Oc2cc(OCc3cncc(C#N)c3)c(CN[C@@H](CO)C(=O)O)cc2Cl)c1F [Example 2.028]	< 0.1
N#Cc1cncc(COc2cc(O[C@H]3CCc4c(-c5ccccc5F)cccc43)c(Cl)cc2CN2CCC(O)CC2)c1 [Example 2.029]	< 0.1
N#Cc1cncc(COc2cc(O[C@H]3CCc4c(-c5ccccc5F)cccc43)c(Cl)cc2CN2CCCC(O)C2)c1 (stereo partly drawn) [Example 2.030]	0.1 to 0.5
CN(C)Cc1cc(Cl)c(O[C@H]2CCc3c(-c4ccccc4F)cccc32)cc1OCc1cncc(C#N)c1 [Example 2.031]	< 0.1
N#Cc1cncc(COc2cc(O[C@H]3CCc4c(-c5ccccc5F)cccc43)c(Cl)cc2CN2CCC(C(=O)O)C2)c1 (stereo partly drawn) [Example 2.032]	< 0.1
CC(C)c1cccc(-c2cccc3c2CC[C@@H]3Oc2cc(OCc3cncc(C#N)c3)c(CN[C@@H](CO)C(=O)O)cc2Cl)c1 [Example 2.033]	0.5 to 20
CC(C)c1ccccc1-c1cccc2c1CC[C@@H]2Oc1cc(OCc2cncc(C#N)c2)c(CN[C@@H](CO)C(=O)O)cc1Cl [Example 2.034]	0.1 to 0.5
CCc1ccccc1-c1cccc2c1CC[C@@H]2Oc1cc(OCc2cncc(C#N)c2)c(CN[C@@H](CO)C(=O)O)cc1Cl [Example 2.035]	0.1 to 0.5
CCOc1cc(O[C@H]2CCc3c(-c4ccccc4F)cccc32)c(Cl)cc1CN[C@@H](CO)C(=O)O [Example 2.036]	< 0.1
N#Cc1cncc(COc2cc(O[C@H]3CCc4c(-c5ccccc5F)cccc43)c(Cl)cc2CN2CC(O)C2)c1 [Example 2.037]	< 0.1
O=C(O)[C@H](CO)NCc1cc(Cl)c(O[C@H]2CCc3c(-c4ccccc4F)cccc32)cc1OCC1CC1 [Example 2.038]	0.1 to 0.5
COc1cc(O[C@H]2CCc3c(-c4ccc5c(c4)OCCO5)cccc32)c(Cl)cc1CN[C@@H](CO)C(=O)O [Example 2.039]	< 0.1

Now from value to compound:

IC50 [µM]	SMILES
< 0.1	COc1cc(O[C@H]2CCc3c(-c4cccc(OC)c4F)cccc32)c(Cl)cc1CN[C@@H](CO)C(=O)O [Example 2.040]
0.5 to 20	COc1cc(O[C@H]2CCc3c(-c4cccc(OC)c4F)cccc32)c(Cl)cc1CN1CC(O)C1 [Example 2.041]
0.5 to 20	COc1cc(O[C@H]2CCc3c(-c4ccc5c(c4)OCCO5)cccc32)c(Cl)cc1CN1CC(O)C1 [Example 2.042]
< 0.1	COc1cccc(-c2cccc3c2CC[C@@H]3Oc2cc(OCc3cncc(C#N)c3)c(CN[C@@H](CO)C(=O)O)cc2Cl)c1Cl [Example 2.043]
0.1 to 0.5	COc1ccc(-c2cccc3c2CC[C@@H]3Oc2cc(OCc3cncc(C#N)c3)c(CN[C@@H](CO)C(=O)O)cc2Cl)c(F)c1 [Example 2.044]
< 0.1	COc1ccc(F)c(-c2cccc3c2CC[C@@H]3Oc2cc(OCc3cncc(C#N)c3)c(CN[C@@H](CO)C(=O)O)cc2Cl)c1 [Example 2.045]
< 0.1	Cc1cccc(-c2cccc3c2CC[C@@H]3Oc2cc(OCc3cncc(C#N)c3)c(CN[C@@H](CO)C(=O)O)cc2Cl)c1F [Example 2.046]
< 0.1	COc1cccc(-c2ccc(F)c3c2CCC3Oc2cc(OCc3cncc(C#N)c3)c(CN[C@@H](CO)C(=O)O)cc2Cl)c1F (stereo partly drawn) [Example 2.047]
< 0.1	CCOc1cc(O[C@H]2CCc3c(-c4cccc(OC)c4F)cccc32)c(Cl)cc1CN[C@@H](CO)C(=O)O [Example 2.048]
0.5 to 20	COc1cccc(-c2cccc3c2CC(C)C3Oc2cc(OCc3cncc(C#N)c3)c(CN[C@@H](CO)C(=O)O)cc2Cl)c1F (stereo partly drawn) [Example 2.049]
< 0.1	N#Cc1cncc(COc2cc(O[C@H]3CCc4c(-c5ccc6c(c5)OCCO6)cccc43)c(Cl)cc2CN2CC(O)C2)c1 [Example 2.050]
< 0.1	COc1cccc(-c2cccc3c2CC[C@@H]3Oc2cc(OCc3cncc(C#N)c3)c(CN3CC(O)C3)cc2Cl)c1F [Example 2.051]
0.1 to 0.5	COc1cccc(-c2cccc3c2CC[C@@H]3Oc2cc(OCc3cncc(C#N)c3)c(CN3CCC(O)CC3)cc2Cl)c1F [Example 2.052]
0.1 to 0.5	COc1cccc(-c2cccc3c2CC[C@@H]3Oc2cc(OCc3cncc(C#N)c3)c(CNCc3n[nH]c(=O)[nH]3)cc2Cl)c1F [Example 2.053]
0.5 to 20	COc1cccc(-c2cccc3c2CC[C@@H]3Oc2cc(OCc3cncc(C#N)c3)c(CNCc3noc(=O)[nH]3)cc2Cl)c1F [Example 2.054]
0.1 to 0.5	COc1cccc(-c2cccc3c2CC[C@@H]3Oc2cc(OCc3cncc(C#N)c3)c(CN3CCC[C@@H](O)C3)cc2Cl)c1F [Example 2.055]
< 0.1	CCOc1cc(O[C@H]2CCc3c(-c4ccc5c(c4F)OCCO5)cccc32)c(Cl)cc1CN[C@@H](CO)C(=O)O [Example 2.056]
< 0.1	N#Cc1cncc(COc2cc(O[C@H]3CCc4c(-c5ccc6c(c5F)OCCO6)cccc43)c(Cl)cc2CN[C@@H](CO)C(=O)O)c1 [Example 2.057]
